# Reference: patent US8129357B2, “Method of making and using an adenosine analogue” (Academia Sinica, priority 2006, dated 2012)
# “Also recorded” adds a separate entry of the source.
# How the values were obtained:
# [1] = system: R6/2 mice; experiment: Survival / lifespan of R6/2 mice; assay type: in vivo, mouse; conditions: for lifespan of R6/2 mice: drinking water from the age of 4 weeks, T1-C 0.5 mg/mL, T1-11 0.05 mg/mL; for mean survival time: mean±SEM, n=7~8, T1-C 0.5 mg/mL, T1-11 0.05 mg/mL in drinking water, control 94.9±2.5
# [2] = Body weight of R6/2 mice; assay type: in vivo, mouse; conditions: drinking water from the age of 4 weeks, T1-C 0.5 mg/mL, T1-11 0.05 mg/mL
# [3] = system: BV2 cells; experiment: LPS-evoked iNOS induction and NO production in BV2 cells; assay type: cell-based
# [4] = system: R6/2 mice; experiment: Rotarod performance (motor coordination) in R6/2 mice; assay type: in vivo, mouse; conditions: drinking water from the age of 4 weeks, T1-C 0.5 mg/mL, T1-11 0.05 mg/mL
# Text: Male R6/2 mice and littermate controls were mated to female control mice (B6CBAFI/J). Mice were obtained from Jackson Laboratories, Bar Harbor, Me., USA. Offspring were identified by the PCR genotyping technique of genomic DNA extracted from tail tissues using primers located in the transgene (5′-[…]-3′ (SEQ ID NO: 1) and 5′-[…]-3′ (SEQ ID NO: 2)) to ensure that the number of CAG repeats remained approximately 150. In total, 67 R6/2 transgenic mice were used in this study. Animals were housed at the Institute of Biomedical Sciences Animal Care Facility under a 12-h light/dark cycle. Daily injections of the indicated reagent were given between 13:00 and 18:00. Body weights of mice were recorded once daily, prior to diet administration. Animal experiments were performed under protocols approved by the Academia Sinica Institutional Animal Care and Utilization Committee, Taiwan.
# Motor coordination was assessed using a rotarod apparatus (UGO BASILE, Comerio, Italy) at a constant speed (12 rpm) over the period of 2 min (Carter, et al. (1999)). All mice were trained for 2 days at the age of 6 weeks to allow them to become acquainted with the rotarod apparatus. Animals were then tested three times per week from the ages of 7 to 12 weeks. For each test, animals were placed in the apparatus before initiation of rotation. Latency to falling was automatically recorded. […]
# [5] = system: PC12 cells; experiment: MTT assay: protection of serum-deprived PC12 cells from apoptosis; assay type: cell-based, rat; conditions: 24 h treatment
# Description: PC12 cells purchased from American Type Culture Collection (ATCC, Manassas, Va., USA) were maintained in Dulbecco's Modified Eagle Medium (DMEM) supplemented with 10% horse serum and 5% fetal bovine serum and incubated in a CO2 incubator (5%) at 37° C. The striatal progenitor cell line (ST14A) was obtained from Dr. E. Cattaneo (University of Milano, Italy) and was maintained in an incubation chamber with 10% CO2-90% air at 33° C. as described previously (Ehrlich, et al. (2001)).
# PC12 cells were serum-deprived by three washes of phosphate buffered saline (PBS) and resuspended in DMEM. The suspended cells were plated on 96-well plates (1×10^4 cells/well) and treated with the indicated reagent(s). After treatment for 21 h, 3-(4,5-dimethylthiazol-2-yl)-2,5-diphenyl tetrazolium bromide (MTT) was added to the medium (0.5 mg/mL) and incubated at 37° C. for another 3 h. After discarding the medium, 100 μl dimethyl sulfoxide (DMSO) was then applied to each well to dissolve the formazan crystals and the absorbances at 570 and 630 nm in each well were measured on a micro-enzyme linked immunosorbent assay (ELISA) reader.
# [6] = biological target: T1, A2A-R (Rattus norvegicus, UniProt P30543); experiment: Cellular cAMP content of ST14A cells; assay type: cell-based; conditions: for intracellular cAMP level: 20 min at RT, CGS21680 10 μM, T1-C 10 μM, T1-11 26.8 μM
# T1 construct: treating ST14A cells (Ehrlich, et al. (2001)) with either T1-C or T1-11 also elevated the intracellular cAMP level; endogenous in cells; host or cells: ST14A striatal progenitor cell line
# T1 sequence (P30543 whole entry): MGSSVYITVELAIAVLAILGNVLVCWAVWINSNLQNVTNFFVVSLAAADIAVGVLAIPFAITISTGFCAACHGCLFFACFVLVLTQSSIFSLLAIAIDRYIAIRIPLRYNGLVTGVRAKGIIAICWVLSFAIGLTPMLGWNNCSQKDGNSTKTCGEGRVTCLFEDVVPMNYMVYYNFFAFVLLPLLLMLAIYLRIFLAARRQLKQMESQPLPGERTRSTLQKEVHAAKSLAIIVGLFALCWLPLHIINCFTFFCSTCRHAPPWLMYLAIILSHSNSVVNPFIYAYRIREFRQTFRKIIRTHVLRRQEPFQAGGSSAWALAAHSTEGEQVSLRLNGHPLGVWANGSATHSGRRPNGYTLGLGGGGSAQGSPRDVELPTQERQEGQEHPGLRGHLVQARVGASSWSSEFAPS
# [7] = system: primary astrocytes from wildtype (WT) and R6/2-J2 mice; experiment: LPS-induced iNOS expression and NO production in primary astrocytes; assay type: cell-based, mouse; conditions: primary astrocytes from WT and R6/2-J2 mice
# Description: Primary astrocytes were purified from neonatal (1-2-day old) brains of R6/2 HD mice (Mangiarini, L., et al., Exon 1 of the HD gene with an expanded CAG repeat is sufficient to cause a progressive neurological phenotype in transgenic mice. Cell 87, 493-506 (1996)) and their littermates as the WT control. In brief, the cortexes were carefully removed, digested with 0.05% trypsin-EDTA (Gibco, Grand Island, N.Y., USA) at 37° C. for 10 min, then mechanically dissociated by gentle pipetting and passed through a 70-μm-pore nylon mesh. […] Mutant Htt expression was measured by a mouse monoclonal anti-human Htt antibody (EM48) (1:200 dilution, Chemicon International, Temecula, Calif., USA). The purity of the primary astrocyte cultures was determined by immunocytochemical staining using an antibody against an astrocyte-specific marker (GFAP, dilution 1:1000; Sigma, St. Louis, Mo., USA) or a microglia-specific marker (anti-CD11b, dilution 1:200, Serotec, Oxford, UK). […]
# Protein concentrations were determined using the Bio-Rad Protein Assay Dye Reagent Concentrate (Bio-Rad, Hercules, Calif., USA). […]
# For the measurement of NO production, cells (5×10^5 cells/well) were treated with lipopolysaccharide (LPS, 0.5 μg/ml) in the presence of the desired drug for 72 hr. […] The absorbance at 540 nm was then monitored. […]
suppression of the cAMP response by A2A-R antagonist [6],SMILES,lifespan of R6/2 mice [1],mean survival time [1],body weight loss [2],LPS-evoked NO production [3],LPS-evoked iNOS induction [3],progressive deterioration of motor coordination (rotarod performance) [4],"protection of PC12 cells from apoptosis induced by serum withdrawal (cell viability, MTT) [5]",intracellular cAMP level [6],LPS-induced inflammation (iNOS expression and NO production) [7]
–,"OCC1OC(n2cnc3c(NCc4ccc(O)cc4)ncnc32)C(O)C1O (stereo not shown) [T1-11, 2-(6-(4-hydroxybenzylamino)-9H-purin-9-yl)-5-(hydroxymethyl)tetrahydrofuran-3,4-diol]",elongated,104.9 ± 5.2 days,ameliorated,reduces,reduces,markedly delayed,active; also recorded: much more potent than T1-C,elevated,effectively suppressed
suppressed,"Cn1c(=O)c2c(nc(/C=C/c3cccc(Cl)c3)n2C)n(C)c1=O [CSC, reference compound]",–,–,–,–,–,–,–,–,–
–,"Oc1ccc(CSCc2ccc(O)cc2)cc1 [T1-C, 4,4′-dihydroxybenzyl sulfide]",elongated,106.7 ± 4.6 days,ameliorated,–,–,markedly delayed,active,elevated,–
